How the values were obtained:
[1] = system: maximal electroshock (MES) induced seizure; assay: maximal electroshock (MES) seizure test, mice (ip); assay type: in vivo; details: for MES, ED50 / PI protective index (TD50/MES ED50): mice; for MES, ED50 / ED50 / PI protective index (TD50/MES ED50): ip; for MES, ED50: at time of peak effect (hours in brackets); for ED50: Mus musculus
Excerpt: (§1) Compounds were screened for anticonvulsant activity in both male albino Carthworth Farms No. 1 mice (ip route) and male albino Sprague Dawley rats [oral (po) route]. Activity was established using the electrical (maximal electroshock or MES) test. In the MES test, a drop of electrolyte solution with anesthetic (0.5% butacaine hemisulfate in 0.9% sodium chloride) was used in the eyes of the animals prior to positioning the corneal electrodes and delivery of current. […] Protection endpoints were defined as the abolition of the hind limb tonic extensor component of the induced seizure. In mice, effects of compounds on forced spontaneous motor activity were determined using the rotorod test. […] Normally under these conditions, mice maintain their balance almost indefinitely. In rats, motor impairment is assessed by observing for overt evidence of ataxia, abnormal gait and stance, and/or loss of placing response and muscle tone. In the mouse identification screening study all compounds were given at three dose levels (30, 100, 300 mg/kg) and two time periods (0.5 hours, 4 hours). Typically, in the MES seizures test one animal was tested at 30 mg/kg and 300 mg/kg, and three animals at 100 mg/kg. In the rotored toxicity test four animals were tested at 30 mg/kg, and 300 mg/kg, and eight animals at 100 mg/kg.
(§2) The quantitative determination of the median effective (ED50) and toxic doses (TD50) was conducted at previously calculated times of peak effect. Groups of at least eight animals were tested using different doses of test compound until at least two points wee determined between 100 and 0% protection and minimal motor impairment.

[2] = system: motor impairment; assay: motor impairment (ataxia, gait, stance) observation, rats (po); assay type: in vivo; details: rat, po, at time of peak effect
Excerpt: (§3) Compounds were screened for anticonvulsant activity in both male albino Carthworth Farms No. 1 mice (ip route) and male albino Sprague Dawley rats [oral (po) route]. Activity was established using the electrical (maximal electroshock or MES) test. In the MES test, a drop of electrolyte solution with anesthetic (0.5% butacaine hemisulfate in 0.9% sodium chloride) was used in the eyes of the animals prior to positioning the corneal electrodes and delivery of current. A 60 cycle alternating current was administered for 0.2 sec. in both species, 50 mA in mice and 150 mA in rats. Protection endpoints were defined as the abolition of the hind limb tonic extensor component of the induced seizure. In mice, effects of compounds on forced spontaneous motor activity were determined using the rotorod test. […] Normally under these conditions, mice maintain their balance almost indefinitely. In rats, motor impairment is assessed by observing for overt evidence of ataxia, abnormal gait and stance, and/or loss of placing response and muscle tone. In the mouse identification screening study all compounds were given at three dose levels (30, 100, 300 mg/kg) and two time periods (0.5 hours, 4 hours). Typically, in the MES seizures test one animal was tested at 30 mg/kg and 300 mg/kg, and three animals at 100 mg/kg. In the rotored toxicity test four animals were tested at 30 mg/kg, and 300 mg/kg, and eight animals at 100 mg/kg.
as §2, with “impairment. The dose of candidate substance required to produce the defined end-point in 50% of the animals in each test and the 95% confidence interval was calculated.” for “impairment.”

[3] = as above; assay type: in vivo; details: male, Sprague Dawley, in vivo, rat; for TD50: po, at time of peak effect, read-out: tox, TD50
Excerpt: as §3
as §2, with “impairment. The dose of candidate substance required to produce the defined end-point in 50% of the animals in each test and the 95% confidence interval was calculated.” for “impairment.”

[4] = system: maximal electroshock (MES) induced seizure; assay: 5-day chronic treatment tolerance study (MES test); assay type: in vivo; details: rats, 5 daily doses of 48 mg/kg
Experimental: Compound C, i.e., N-acetyl-D, L-phenylglycine N-benzylamide was subjected to 5-day chronic treatment on anticonvulsant activity (maximal electroshock). 3 groups of 8 animals each were treated as follows. One group was given the MES ED50 of the test drug for 5 days; the second group was given the requisite volume of the vehicle (0.04 ml/10 g body wt.) for 4 days and a single dose (MES ED50) of the test drug on day 5; and the third group was given the requisite volume of the vehicle daily for 5 days. At the time of peak effect of the candidate substance on day 5, all groups were subjected to the MES test and the number of animals protected recorded. Seizure components of the unprotected animals were timed to the nearest 10th of a second and the extensor/flexor (E/F) ratio, S.E., and p value determined. Since extensor duration decreases and flexor duration increases as a maximal seizure is attenuated, the E/F ratio provides a measure of seizure severity.

[5] = system: liver microsomal system; assay: 7-day liver microsomal studies; assay type: in vivo, rats
Experimental: Two of the three groups of animals subjected to the hexobarbital sleep time test (chronically treated and vehicle control groups) were continued on their respective original treatment regimen for two days (days 6 and 7) and 24 hours later (day 8) subjected to liver microsomal studies. The rats were decapitated and the livers perfused with 0.9% sodium chloride solution. The livers were removed, weighed, and homogenized in 0.25M sucrose. Microsomes were prepared and their drug metabolizing capabilities (microsomal protein yield; cytochrome P-450 concentration; p-nitroanisole O-demethylase and NADPH cytochrome c reductase activities; norbenzphetamine MI complex formation; and glucuronyl transferase, erythromycin demethylase, and ethylmorphine demethylase activities) measured (Arch. Biochem. Biophys. 143: 318-329, 1971).

[6] = rotorod neurologic toxicity test, mice (ip); assay type: in vivo; details: male, ip
Excerpt: as §1
as §2, with “impairment. The dose of candidate substance required to produce the defined end-point in 50% of the animals in each test and the 95% confidence interval was calculated.” for “impairment.”

[7] = system: hexobarbital sleep time; assay: hexobarbital sleep time test; assay type: in vivo; details: rats, 5 daily doses of 48 mg/kg
Experimental: All rats subjected to the 5-day tolerance studies were maintained in their home cage for 24 hours and then subjected to the hexobarbital sleep time test (day 6). Each rat in each of the 3 groups was given 100 mg/kg of hexobarbital (i.p.) and the sleep time measured to the nearest minute. The mean sleep time and S.E. for each group were calculated.

[8] = system: maximal electroshock (MES) induced seizure; assay: maximal electroshock (MES) seizure test, rats (po); assay type: in vivo; details: for ED50 / PI protective index (TD50/MES ED50) / MES, ED50: po
Excerpt: as §1, §2

[9] = system: motor impairment (rotorod test); assay: rotorod neurologic toxicity test, mice (ip); assay type: in vivo; details: mice, ip, rotorod test, at time of peak effect
Excerpt: as §1
as §2, with “impairment. The dose of candidate substance required to produce the defined end-point in 50% of the animals in each test and the 95% confidence interval was calculated.” for “impairment.”

[10] = liver microsomes, rats, p.o., 48 mg/kg, Treated 7 Days
[11] = rats, p.o., 48 mg/kg, Treated 7 Days
[12] = rat, at time of peak effect, read-out: MES, ED50

Q: With `COC(NC(C)=O)C(=O)NCc1ccccc1` (racemic) [compound 4, D,L-2-Acetamido-N-benzyl-2-methoxyacetamide] as the molecule, how does the “MES, ED50” value [1] read?
A: The value was 98.30 mg/kg.

Q: With `COCC(NC(C)=O)C(=O)NCc1ccccc1` (racemic) [compound 9, N-Benzyl 2-Acetamido-3-methoxypropionamide(racemic mixture)] as the molecule, how does the “tox, TD50” value [2] read?
A: The value was 386.8 [1] mg/kg.

Q: With `CC(=O)NC(C(=O)NCc1ccccc1)c1ccccc1` (racemic) [compound 13, N-Acetyl-D,L-phenylglycine-N-benzylamide] as the molecule, how does the ED50 ([3]; oral (Table 6), read-out: RAT ED50 Neurotox) read?
A: Its ED50 is over 1000 mg/kg.

Q: And the TD50 [3]?
A: The TD50 was over 1000 mg/kg.

Q: What about the “effect of chronic treatment on anticonvulsant activity” value [4] of the same molecule?
A: Its value is “does not affect”.

Q: And the ED50 ([1]; read-out: MES, ED50)?
A: Its ED50 is 20.3 mg/kg.

Q: And the ED50 ([1]; read-out: MOUSE anticonvulsant dose ED50 MES)?
A: Its ED50 is 20.3 mg/kg.

Q: And the “PI protective index (TD50/MES ED50)” value [1]?
A: Its value is 4.77.

Q: And the “Ratio to MES” value ([1]; mouse, i.p., Neurotox/MES (Table 6))?
A: The value was 4.8.

Q: And the “Cytochrome P-450” value [5, 10]?
A: Its value is 0.71 ± 0.06 nmol/mg.

Q: And the Erythromycin demethylase [5, 10]?
A: The Erythromycin demethylase was 0.64 ± 0.07 nmol/mg/min.

Q: And the Ethylmorphine demethylase [5, 10]?
A: The Ethylmorphine demethylase was 6.75 ± 0.37 nmol/mg/min.

Q: And the “Glucoronyl Transferase” value [5, 10]?
A: The value was 9.77 ± 0.23 nmol/mg/min.

Q: What about the “NADPH Cytochrome c reductase” value [5, 10] of the same molecule?
A: Its value is 160.3 ± 5.2 nmol/mg/min.

Q: And the “Norbenzphetamine MI Complex” value [5, 10]?
A: Its value is 0.023 ± 0.003 nmol/mg/min.

Q: What about the “Total Protein” value [5, 10] of the same molecule?
A: The value was 31.7 ± 1.4 mg.

Q: What about the “p-nitroanisole O-demethylase” value [5, 10] of the same molecule?
A: The value was 0.82 ± 0.12 nmol/mg/min.

Q: And the “Liver Pathology Report” value ([5]; rat, oral, 48 mg/kg/day × 7 days)?
A: Its value is “liver enzyme induction”.

Q: What about the “Safety Ratio daily dose; MES” value ([5]; rat, oral, 48 mg/kg/day × 7 days vs oral MES ED50) of the same molecule?
A: Its value is −1.

Q: What about the “induction of liver microsomal enzyme systems” value ([5]; rats, chronic administration, 48 mg/kg, 7 days) of the same molecule?
A: The value was “induces some liver microsomal enzyme systems”.

Q: And the “Body Weight” value [5, 11]?
A: Its value is 146.3 ± 3.8 g.

Q: And the “Liver Weight” value [5, 11]?
A: The value was 8.54 ± 0.26 g.

Q: And the ED50 ([6]; Carthworth Farms No. 1, in vivo, mouse, i.p., rotorod test at peak effect (Table 6), read-out: MOUSE ED50 Neurotox)?
A: The ED50 was 96.9 mg/kg.

Q: And the TD50 ([6]; Carthworth Farms No. 1, mouse, in vivo, mice, rotorod test, at time of peak effect, read-out: tox, TD50)?
A: The TD50 was 96.9 mg/kg.

Q: What about the “effect of chronic treatment on hexobarbital sleep time” value [7] of the same molecule?
A: The value was “does not affect”.

Q: And the ED50 ([8]; Rattus norvegicus, read-out: RAT anticonvulsant ED50 MES)?
A: The ED50 was 48.3 mg/kg.

Q: What about the ED50 ([8]; Rattus norvegicus, Rats, p.o., TPE 4 hrs (Table 4 head), read-out: ED50) of the same molecule?
A: The ED50 was 48 mg/kg.

Q: And the “Ratio to MES” value ([8]; rat, oral, Neurotox/MES (Table 6))?
A: Its value is 20.7.

Q: What about the “PI protective index (TD50/MES ED50)” value ([8]; rat) of the same molecule?
A: The value was over 20.7.

Q: What about the ED50 [8, 12] of the same molecule?
A: The ED50 was 48.3 mg/kg.

Q: With `COC[C@@H](NC(C)=O)C(=O)NCc1cccc(F)c1` [Ex. 3, R-N-(3-Fluorobenzyl)2-Acetamide-3-Methoxypropionamide] as the molecule, how does the “tox, TD50” value [2] read?
A: The value was >396 [0.5] mg/kg.

Q: And the “PI protective index (TD50/MES ED50)” value [1]?
A: Its value is 6.7.

Q: And the “MES, ED50” value [1]?
A: The value was 6.9 [0.25] mg/kg.

Q: What about the “tox, TD50” value [9] of the same molecule?
A: Its value is 46.3 [0.25] mg/kg.

Q: And the “PI protective index (TD50/MES ED50)” value ([8]; rat)?
A: The value was over 57.7.

Q: What about the “MES, ED50” value ([8]; rat, at time of peak effect) of the same molecule?
A: The value was 6.9 [0.5] mg/kg.

Q: Which TD50 [3] does the source give for `COC[C@@H](NC(C)=O)C(=O)NCc1ccc(F)cc1` [Ex. 4, (R)-N-(4-Fluorobenzyl)2-Acetamido-3-Methoxypropanamide] here?
A: Its TD50 is 125 to 250 mg/kg.

Q: And the melting point?
A: Its melting point is 144 to 145 °C.

Q: And the ED50 ([1]; read-out: MES, ED50)?
A: Its ED50 is 4.2 mg/kg.

Q: And the “PI protective index (TD50/MES ED50)” value [1]?
A: Its value is 6.6.

Q: What about the “tox, TD50” value [9] of the same molecule?
A: Its value is 27.8 [0.25] mg/kg.

Q: And the ED50 [8, 12]?
A: Its ED50 is 2.6 mg/kg.

Q: With `CC(=O)N[C@H](C)C(=O)NCc1ccccc1` [compound 2, N-Acetyl-D-alanine-N′-benzylamide] as the molecule, how does the “PI protective index (TD50/MES ED50)” value [1] read?
A: Its value is 3.9.

Q: What about the “MES, ED50” value [1] of the same molecule?
A: Its value is 54.8 [0.5] mg/kg.

Q: What about the “tox, TD50” value [9] of the same molecule?
A: The value was 2.14 [0.5] mg/kg.

Q: And the “PI protective index (TD50/MES ED50)” value ([8]; rat)?
A: The value was over 35.2.

Q: And the “MES, ED50” value ([8]; rat, at time of peak effect)?
A: The value was 28.4 [4] mg/kg.
